The supplement of paper PMC11451515

Test system: P12-Ichikawa
Experiment: cell viability relative to DMSO control; higher = less cytotoxic
Conditions: 48 h
Procedure, shortened: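 NOMO1 or SEM (500 cells/well) or P12-Ichikawa (1000 cells/well) leukemia cells were adapted for at least four passages in each medium. They were seeded in 1536-well plates (5 μl) and pin-dosed with library compounds in DMSO over an 11-point threefold series, 47 μM to 0.79 nM. CellTiter-Glo One luminescence was read after 48 h at 37°C. Viability is the per-plate percentage relative to DMSO wells, with cell-free wells as background.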

[1] = HPLM + 10% dialyzed FBS, 0.000781 µM
[2] = HPLM + 10% dialyzed FBS, 0.00234 µM
[3] = HPLM + 10% dialyzed FBS, 0.00702 µM
[4] = HPLM + 10% dialyzed FBS, 0.0211 µM
[5] = HPLM + 10% dialyzed FBS, 0.0632 µM
[6] = HPLM + 10% dialyzed FBS, 0.19 µM
[7] = HPLM + 10% dialyzed FBS, 0.569 µM
[8] = HPLM + 10% dialyzed FBS, 1.71 µM
[9] = HPLM + 10% dialyzed FBS, 5.12 µM
[10] = HPLM + 10% dialyzed FBS, 15.4 µM
[11] = HPLM + 10% dialyzed FBS, 46.1 µM
[12] = RPMI 5 mM glucose + 10% FBS, 0.000781 µM
[13] = RPMI 5 mM glucose + 10% FBS, 0.00234 µM
[14] = RPMI 5 mM glucose + 10% FBS, 0.00702 µM
[15] = RPMI 5 mM glucose + 10% FBS, 0.0211 µM
[16] = RPMI 5 mM glucose + 10% FBS, 0.0632 µM
[17] = RPMI 5 mM glucose + 10% FBS, 0.19 µM
[18] = RPMI 5 mM glucose + 10% FBS, 0.569 µM
[19] = RPMI 5 mM glucose + 10% FBS, 1.71 µM
[20] = RPMI 5 mM glucose + 10% FBS, 5.12 µM
[21] = RPMI 5 mM glucose + 10% FBS, 15.4 µM
[22] = RPMI 5 mM glucose + 10% FBS, 46.1 µM
[23] = RPMI 5 mM glucose + 10% dialyzed FBS, 0.000781 µM
[24] = RPMI 5 mM glucose + 10% dialyzed FBS, 0.00234 µM
[25] = RPMI 5 mM glucose + 10% dialyzed FBS, 0.00702 µM
[26] = RPMI 5 mM glucose + 10% dialyzed FBS, 0.0211 µM
[27] = RPMI 5 mM glucose + 10% dialyzed FBS, 0.0632 µM
[28] = RPMI 5 mM glucose + 10% dialyzed FBS, 0.19 µM
[29] = RPMI 5 mM glucose + 10% dialyzed FBS, 0.569 µM
[30] = RPMI 5 mM glucose + 10% dialyzed FBS, 1.71 µM
[31] = RPMI 5 mM glucose + 10% dialyzed FBS, 5.12 µM
[32] = RPMI 5 mM glucose + 10% dialyzed FBS, 15.4 µM
[33] = RPMI 5 mM glucose + 10% dialyzed FBS, 46.1 µM

| SMILES | cell viability [1] [%] | cell viability [2] [%] | cell viability [3] [%] | cell viability [4] [%] | cell viability [5] [%] | cell viability [6] [%] | cell viability [7] [%] | cell viability [8] [%] | cell viability [9] [%] | cell viability [10] [%] | cell viability [11] [%] | cell viability [12] [%] | cell viability [13] [%] | cell viability [14] [%] | cell viability [15] [%] | cell viability [16] [%] | cell viability [17] [%] | cell viability [18] [%] | cell viability [19] [%] | cell viability [20] [%] | cell viability [21] [%] | cell viability [22] [%] | cell viability [23] [%] | cell viability [24] [%] | cell viability [25] [%] | cell viability [26] [%] | cell viability [27] [%] | cell viability [28] [%] | cell viability [29] [%] | cell viability [30] [%] | cell viability [31] [%] | cell viability [32] [%] | cell viability [33] [%] |
| --- | --- | --- | --- | --- | --- | --- | --- | --- | --- | --- | --- | --- | --- | --- | --- | --- | --- | --- | --- | --- | --- | --- | --- | --- | --- | --- | --- | --- | --- | --- | --- | --- | --- |
| CN1\C=N/C2=CC=C(NC3=CC(=CC=C3C)NC(=O)C4=CC(=CC=C4)C(C)(C)C#N)C=C2C1=O | 97.1 | 96.9 | 101 | 97.8 | 101 | 94.6 | 87 | 87.4 | 68.5 | 69.3 | 63.2 | 90.4 | 98.7 | 99 | 95 | 96.7 | 93 | 83.6 | 81.3 | 59.6 | 58.4 | 44.4 | 97.5 | 104 | 94 | 102 | 99.5 | 98.7 | 93.3 | 84.8 | 73.4 | 64.1 | 48.1 |
| CC(=O)Oc1ccccc1C(=O)Nc1ncc([N+](=O)[O-])s1 | 102 | 103 | 106 | 107 | 104 | 104 | 110 | 109 | 95.9 | 97.3 | 36.5 | 92.8 | 102 | 95.5 | 98.3 | 96 | 104 | 98.5 | 98.4 | 79.9 | 83.5 | 75.6 | 95.7 | 97.5 | 100 | 95.6 | 94.2 | 95.4 | 96.3 | 93.5 | 82 | 85.2 | 79.9 |
| O=C(O)c1cccnc1Nc1cccc(C(F)(F)F)c1 | 112 | 111 | 111 | 118 | 119 | 128 | 112 | 131 | 129 | 129 | 124 | 115 | 117 | 113 | 120 | 124 | 143 | 129 | 132 | 141 | 138 | 108 | 104 | 108 | 115 | 112 | 112 | 119 | 115 | 113 | 121 | 131 | 117 |
| CCCCOCCOc1nc(-c2ccc(C(=O)O)c(F)c2)sc1C | 119 | 116 | 112 | 116 | 119 | 112 | 115 | 112 | 107 | 94.5 | 110 | 124 | 117 | 118 | 120 | 120 | 110 | 108 | 100 | 99.7 | 86.5 | 97.6 | 123 | 127 | 124 | 121 | 116 | 114 | 118 | 105 | 111 | 85 | 113 |
| Cc1csc(-c2nnc(Nc3ccc(Oc4ncccc4-c4ccnc(N)n4)cc3)c3ccccc23)c1 | 107 | 111 | 104 | 15.1 | 16.6 | 14.6 | 19.1 | 23.2 | 20.1 | 18.7 | 22 | 104 | 116 | 106 | 22.3 | 20.1 | 16.7 | 20.3 | 26.5 | 26.4 | 24.3 | 24.9 | 117 | 109 | 108 | 27.8 | 24.8 | 27.1 | 34.4 | 39.9 | 43.5 | 39.6 | 38.1 |
| CC[C@@H]([C@H](C)O)n1ncn(-c2ccc(N3CCN(c4ccc(OCC5CO[C@@](Cn6cncn6)(c6ccc(F)cc6F)C5)cc4)CC3)cc2)c1=O (some centres not stated) | 102 | 99.8 | 101 | 96.3 | 98.3 | 91.1 | 100 | 92.2 | 90.8 | 84.9 | 85.1 | 101 | 102 | 104 | 97.8 | 95 | 102 | 92.3 | 91.1 | 92.1 | 88.3 | 82.6 | 87.2 | 98 | 95.1 | 97.9 | 90.9 | 87.7 | 85.7 | 89.8 | 85.1 | 83.5 | 75 |
| CNc1nc(Nc2cnn([C@H]3CCN(C4COC4)C[C@@H]3F)c2Cl)ncc1C(F)(F)F | 91 | 100 | 108 | 108 | 102 | 92.9 | 98.5 | 53.3 | 24.9 | 30 | 28 | 93.9 | 106 | 99.6 | 106 | 115 | 112 | 115 | 99.1 | 54 | 22.2 | 39.2 | 100 | 103 | 110 | 120 | 115 | 111 | 114 | 93.1 | 54.3 | 34.8 | 38.1 |
| CC1=CC(=CC(=C1C\C2=N\CCN2)C)C(C)(C)C | 102 | 105 | 105 | 106 | 105 | 124 | 107 | 116 | 106 | 104 | 102 | 99.5 | 105 | 105 | 114 | 118 | 113 | 111 | 114 | 99.3 | 86.4 | 90.2 | 91 | 96.4 | 98.1 | 100 | 105 | 92.9 | 103 | 102 | 97.9 | 91.4 | 84.1 |
| O=C(c1ccccc1)c1ccc2n1CCC2C(=O)O (configuration not stated) | 113 | 111 | 114 | 111 | 112 | 106 | 109 | 91.7 | 75.8 | 64.6 | 71.5 | 127 | 117 | 124 | 119 | 120 | 113 | 117 | 96.3 | 84.5 | 57.3 | 62.8 | 104 | 108 | 106 | 107 | 99.1 | 108 | 98.6 | 93.6 | 72.6 | 52.8 | 61.8 |
| CCc1ccc(/C=C2/SC(=S)NC2=O)cc1 | 84.2 | 87.7 | 79.6 | 88.1 | 90.9 | 80.1 | 91.5 | 84 | 85.3 | 60 | 88.1 | 82.4 | 84.6 | 76 | 88.9 | 82.8 | 77.7 | 85.1 | 87.3 | 84.8 | 46.1 | 87.9 | 77.4 | 83.8 | 81.7 | 81.2 | 87.1 | 76.6 | 87.3 | 83.5 | 81.9 | 38.1 | 90.4 |
| Cc1ccnc2c1NC(=O)c1cccnc1N2C1CC1 | 97.4 | 113 | 112 | 106 | 112 | 115 | 115 | 116 | 105 | 106 | 109 | 98.3 | 109 | 117 | 108 | 110 | 116 | 113 | 115 | 102 | 95.2 | 96.5 | 93.5 | 106 | 99.9 | 110 | 108 | 106 | 104 | 111 | 97.1 | 98.8 | 96.8 |
| CCCCOc1c(C(=O)c2c(F)cc(C)cc2F)cnc2[nH]ncc12 | 97.5 | 102 | 104 | 109 | 107 | 89.6 | 104 | 107 | 102 | 91.3 | 95.5 | 104 | 99 | 107 | 102 | 104 | 108 | 103 | 105 | 88.4 | 94.4 | 77.9 | 107 | 104 | 102 | 104 | 101 | 97.4 | 93.8 | 94.6 | 78.9 | 89.6 | 81.3 |
| OCC(O)C(O)C(O)CO (configuration not stated) | 95.6 | 102 | 97.8 | 99.8 | 98.4 | 94.3 | 103 | 92.3 | 88.1 | 88.7 | 87.7 | 83.8 | 96 | 95.3 | 95.4 | 91.1 | 92.3 | 99 | 87.1 | 86.3 | 77.8 | 89.1 | 87.2 | 89.9 | 95.3 | 89.8 | 97.2 | 89.9 | 93.7 | 85.4 | 88.3 | 79.2 | 91.8 |
| CC(C)c1cc(C(C)C)c(CC(=O)N[S+](=O)([O-])Oc2c(C(C)C)cccc2C(C)C)c(C(C)C)c1 | 103 | 106 | 103 | 106 | 103 | 104 | 104 | 103 | 101 | 97 | 89.7 | 105 | 102 | 104 | 96.8 | 102 | 96.9 | 109 | 96.8 | 102 | 97.6 | 76.9 | 99.5 | 108 | 105 | 105 | 110 | 101 | 98.3 | 90.1 | 99.1 | 89.2 | 87 |
